According to paper PMC5290327, “SC83288 is a clinical development candidate for the treatment of severe malaria” (Nature Communications, 2017):
≈ marks a conversion by molar mass, not a printed value. Where “and” joins values, the source holds several entries; their conditions need not be identical. Equal entries are not always repeated. Entries after “also recorded” stand apart in the source; their conditions may differ. Where two headings read alike, the source gives them in different places.

Tests used:
CYP1A2 = CYP1A2 (Homo sapiens, UniProt P05177); assay: CYP inhibition, human liver microsomes; details: CYP1A2, melatonin to 6-OH-melatonin, 10 µM
Chain of CYP1A2 (P05177 whole entry): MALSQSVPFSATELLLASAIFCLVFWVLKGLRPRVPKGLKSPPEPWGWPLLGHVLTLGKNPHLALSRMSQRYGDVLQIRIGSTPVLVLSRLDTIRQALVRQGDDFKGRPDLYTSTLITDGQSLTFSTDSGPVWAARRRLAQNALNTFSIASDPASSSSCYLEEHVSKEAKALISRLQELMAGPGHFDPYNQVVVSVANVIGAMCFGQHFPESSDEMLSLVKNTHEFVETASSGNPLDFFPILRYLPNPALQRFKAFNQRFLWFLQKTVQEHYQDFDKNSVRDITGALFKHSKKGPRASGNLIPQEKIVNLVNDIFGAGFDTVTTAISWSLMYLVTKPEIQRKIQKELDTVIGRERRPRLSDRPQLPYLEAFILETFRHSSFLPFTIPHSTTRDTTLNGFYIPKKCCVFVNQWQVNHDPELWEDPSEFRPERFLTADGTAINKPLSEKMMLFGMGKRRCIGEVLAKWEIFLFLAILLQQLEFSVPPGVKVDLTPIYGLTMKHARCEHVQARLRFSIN

NK3 (h) = molecular target: T1, NK3 (h) (Homo sapiens, UniProt P29371); assay: Radioligand binding
T1 construct: Cerep

P. falciparum strain D10 = assay: Growth inhibition assay; format: cell-based; details: Plasmodium falciparum
5-HT1A (h) = molecular target: T2, 5-HT1A (h) (Homo sapiens, UniProt P08908); assay: Radioligand binding
T2 construct: Cerep
T2 sequence (P08908 whole entry): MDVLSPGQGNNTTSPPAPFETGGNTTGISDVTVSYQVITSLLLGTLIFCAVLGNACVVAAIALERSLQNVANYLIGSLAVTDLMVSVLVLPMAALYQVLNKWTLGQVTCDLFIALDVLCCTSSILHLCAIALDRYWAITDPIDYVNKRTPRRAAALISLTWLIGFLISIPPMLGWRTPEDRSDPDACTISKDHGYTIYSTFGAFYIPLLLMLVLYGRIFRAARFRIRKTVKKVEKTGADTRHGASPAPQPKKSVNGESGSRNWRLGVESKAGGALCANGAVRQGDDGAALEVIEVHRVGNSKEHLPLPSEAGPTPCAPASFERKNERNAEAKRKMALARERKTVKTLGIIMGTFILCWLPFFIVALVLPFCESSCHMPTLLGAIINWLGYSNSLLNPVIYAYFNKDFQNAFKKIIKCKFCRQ

NK2 (h) = molecular target: T3, NK2 (h) (Homo sapiens, UniProt P21452); assay: Radioligand binding
T3 construct: Cerep
T3 sequence (P21452 whole entry): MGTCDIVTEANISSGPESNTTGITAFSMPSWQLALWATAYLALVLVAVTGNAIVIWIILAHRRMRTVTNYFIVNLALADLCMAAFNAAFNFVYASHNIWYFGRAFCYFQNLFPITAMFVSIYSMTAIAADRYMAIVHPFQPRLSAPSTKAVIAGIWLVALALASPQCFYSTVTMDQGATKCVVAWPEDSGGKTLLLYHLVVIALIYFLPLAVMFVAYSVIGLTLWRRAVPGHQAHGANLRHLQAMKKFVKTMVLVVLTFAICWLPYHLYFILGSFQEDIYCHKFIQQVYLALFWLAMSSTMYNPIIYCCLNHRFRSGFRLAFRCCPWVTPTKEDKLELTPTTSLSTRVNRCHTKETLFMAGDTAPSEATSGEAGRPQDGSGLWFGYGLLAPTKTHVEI

CYP2C8 = CYP2C8 (Homo sapiens, UniProt P10632); assay: CYP inhibition, human liver microsomes; details: CYP2C8, amodiaquine to Desethylamodiaquine, 10 µM
D1 (h) = molecular target: T4, D1 (h) (Homo sapiens, UniProt P21728); assay: Radioligand binding
T4 construct: Cerep
T4 sequence (P21728 whole entry): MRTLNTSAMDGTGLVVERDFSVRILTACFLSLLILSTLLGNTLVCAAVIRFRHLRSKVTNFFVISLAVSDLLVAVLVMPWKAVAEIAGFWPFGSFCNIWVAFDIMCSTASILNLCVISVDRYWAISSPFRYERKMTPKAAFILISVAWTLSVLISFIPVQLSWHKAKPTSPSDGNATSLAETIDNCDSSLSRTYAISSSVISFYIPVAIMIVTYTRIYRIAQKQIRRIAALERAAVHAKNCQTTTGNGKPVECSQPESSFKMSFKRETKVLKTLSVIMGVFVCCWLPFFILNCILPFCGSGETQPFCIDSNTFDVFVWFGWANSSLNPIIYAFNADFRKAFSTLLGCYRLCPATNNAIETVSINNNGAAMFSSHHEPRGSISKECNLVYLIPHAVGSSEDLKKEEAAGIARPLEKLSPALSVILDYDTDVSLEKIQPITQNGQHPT

[1] = In vitro metabolism in liver microsomes; details: mouse liver microsomes, 10 μM
A2A (h) = molecular target: T5, A2A (h) (Homo sapiens, UniProt P29274); assay: Radioligand binding
T5 construct: Cerep (contract study)
T5 sequence (P29274 whole entry): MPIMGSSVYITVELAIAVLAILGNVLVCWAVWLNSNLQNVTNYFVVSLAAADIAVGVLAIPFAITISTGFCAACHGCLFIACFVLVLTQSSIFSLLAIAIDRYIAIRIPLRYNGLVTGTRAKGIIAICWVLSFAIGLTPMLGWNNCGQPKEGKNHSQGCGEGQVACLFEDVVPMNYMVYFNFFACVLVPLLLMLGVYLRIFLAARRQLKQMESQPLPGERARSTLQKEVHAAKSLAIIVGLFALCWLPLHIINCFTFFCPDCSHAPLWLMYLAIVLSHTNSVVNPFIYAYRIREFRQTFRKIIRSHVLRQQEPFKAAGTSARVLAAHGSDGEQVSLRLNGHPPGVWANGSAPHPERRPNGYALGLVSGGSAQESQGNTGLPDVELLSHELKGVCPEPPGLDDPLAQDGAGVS

NTS1 (NT1) (h) = molecular target: T6, NTS1 (NT1) (h) (Homo sapiens, UniProt P30989); assay: Radioligand binding
T6 construct: Cerep

5-HT transporter (h) = molecular target: T7, 5-HT transporter (h) (Homo sapiens, UniProt P31645); assay: Radioligand binding
T7 construct: Cerep (contract screening)
T7 sequence (P31645 whole entry): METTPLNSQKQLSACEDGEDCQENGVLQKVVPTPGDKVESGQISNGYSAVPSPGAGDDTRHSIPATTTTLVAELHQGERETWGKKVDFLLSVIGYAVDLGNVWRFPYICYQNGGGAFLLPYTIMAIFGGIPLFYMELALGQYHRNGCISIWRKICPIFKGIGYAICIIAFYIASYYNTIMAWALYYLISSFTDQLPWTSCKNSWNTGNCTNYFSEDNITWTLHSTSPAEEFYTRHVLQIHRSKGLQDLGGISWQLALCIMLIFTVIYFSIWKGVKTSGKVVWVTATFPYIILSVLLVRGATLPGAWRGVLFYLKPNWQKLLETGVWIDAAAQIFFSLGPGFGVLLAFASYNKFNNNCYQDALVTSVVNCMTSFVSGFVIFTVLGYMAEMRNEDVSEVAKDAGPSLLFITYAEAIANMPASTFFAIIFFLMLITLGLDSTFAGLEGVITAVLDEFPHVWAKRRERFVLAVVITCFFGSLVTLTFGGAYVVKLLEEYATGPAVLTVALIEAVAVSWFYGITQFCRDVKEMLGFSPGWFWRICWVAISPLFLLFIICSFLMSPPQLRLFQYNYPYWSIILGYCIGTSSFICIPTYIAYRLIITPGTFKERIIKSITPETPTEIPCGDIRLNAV

CYP2D6 = CYP2D6 (Homo sapiens, UniProt P10635); assay: CYP inhibition, human liver microsomes; details: CYP2D6, dextromethorphan to O-desmethyldextromethorphan, 10 µM
D2S (h) = molecular target: T8, D2S (h) (Homo sapiens, UniProt P14416); assay: Radioligand binding
T8 construct: Cerep

PK study = format: in vivo, mouse; details: for half-life: mouse; for MRT last: read-out: MRT0-t; for time of peak plasma concentration (Cmax): single i.p. dose in mice
Method: On the treatment day, all animals were weighed and the dosing volume was calculated for each individual animal according to its actual body weight. All animal were dosed once. Blood samples were taken at different time points and plasma was collected after centrifugation (10,000g, 10 min, 4 °C). Plasma samples were analysed by LC–MS/MS. […] All relevant observations were recorded. The PK studies in cynomolgus monkeys and beagle dogs were performed by the Laboratory of Pharmacology and Toxicology (LPT), Hamburg, and PK and toxicity studies in mice and rats were performed by the 4SC Discovery GmbH, Munich. PK parameters were obtained by a non-compartment analysis, using Kinetica 4.1 (Thermo Scientific).

V1a (h) = molecular target: T9, V1a (h) (Homo sapiens, UniProt P37288); assay: Radioligand binding
T9 construct: Cerep (contract screening)

HepG2 cells = assay: Cytotoxicity; details: 50 μM
M2 (h) = molecular target: T10, M2 (h) (Homo sapiens, UniProt P08172); assay: Radioligand binding
T10 construct: Cerep
T10 sequence (P08172 whole entry): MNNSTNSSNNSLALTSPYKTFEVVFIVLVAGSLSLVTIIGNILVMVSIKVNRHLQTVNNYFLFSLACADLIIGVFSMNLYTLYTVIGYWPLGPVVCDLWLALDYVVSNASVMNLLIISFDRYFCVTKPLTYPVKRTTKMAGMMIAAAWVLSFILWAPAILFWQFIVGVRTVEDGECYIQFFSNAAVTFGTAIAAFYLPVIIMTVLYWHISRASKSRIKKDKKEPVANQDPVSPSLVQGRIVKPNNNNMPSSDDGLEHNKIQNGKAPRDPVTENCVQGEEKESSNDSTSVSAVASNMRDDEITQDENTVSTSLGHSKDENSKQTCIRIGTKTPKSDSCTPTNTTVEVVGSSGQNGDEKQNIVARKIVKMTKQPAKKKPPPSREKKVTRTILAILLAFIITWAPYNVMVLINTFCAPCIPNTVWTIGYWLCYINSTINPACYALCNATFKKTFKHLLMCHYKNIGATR

Solubility in water = details: water
Plasmodium vinckei = assay: Rodent malaria model; format: in vivo
Description: The two SC compounds were also active in the Plasmodium vinckei rodent malaria model system.

P. falciparum strain Dd2 = assay: Growth inhibition assay, asexual blood stages; format: cell-based, Plasmodium falciparum; details: for IC90: Plasmodium falciparum, DD2, 72 h; for absolute Hill coefficient: in vitro growth inhibition curves
[2] = molecular target: T11, norepinephrine transporter (h) (Homo sapiens, UniProt P23975); assay: Radioligand binding
T11 construct: Cerep (contract screening)

VPAC1 (VIP1) (h) = molecular target: T12, VPAC1 (VIP1) (h) (Homo sapiens, UniProt P32241); assay: Radioligand binding
T12 construct: Cerep (contract screening)
T12 sequence (P32241 31-457): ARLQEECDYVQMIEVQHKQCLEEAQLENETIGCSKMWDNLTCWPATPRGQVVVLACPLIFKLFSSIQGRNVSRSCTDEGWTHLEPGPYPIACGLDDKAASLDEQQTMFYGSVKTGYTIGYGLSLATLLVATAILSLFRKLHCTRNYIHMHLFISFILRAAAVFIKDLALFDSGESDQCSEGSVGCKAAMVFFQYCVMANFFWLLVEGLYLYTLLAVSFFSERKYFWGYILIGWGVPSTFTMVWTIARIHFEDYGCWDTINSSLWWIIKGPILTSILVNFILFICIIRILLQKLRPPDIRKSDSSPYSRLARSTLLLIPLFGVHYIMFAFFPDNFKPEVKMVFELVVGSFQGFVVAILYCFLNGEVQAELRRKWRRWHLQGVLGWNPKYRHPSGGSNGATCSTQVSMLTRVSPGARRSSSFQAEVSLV

b2 (h) = molecular target: T13, b2 (h) (Homo sapiens, UniProt P07550); format: binding
T13 construct: Cerep (contract study)
T13 sequence (P07550 whole entry): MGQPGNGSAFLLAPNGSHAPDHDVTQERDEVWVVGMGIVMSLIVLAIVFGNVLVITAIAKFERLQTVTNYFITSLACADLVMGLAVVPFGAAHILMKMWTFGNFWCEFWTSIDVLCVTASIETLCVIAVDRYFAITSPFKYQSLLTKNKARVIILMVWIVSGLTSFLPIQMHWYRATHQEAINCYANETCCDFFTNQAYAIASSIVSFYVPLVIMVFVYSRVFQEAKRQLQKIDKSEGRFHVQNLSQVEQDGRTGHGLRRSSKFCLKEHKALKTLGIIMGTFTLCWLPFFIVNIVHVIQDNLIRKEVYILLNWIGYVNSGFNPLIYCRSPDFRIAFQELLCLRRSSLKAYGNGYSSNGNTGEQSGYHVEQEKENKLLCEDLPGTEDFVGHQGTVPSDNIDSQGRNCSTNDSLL

401 human kinases = assay: Kinase competition assay, whole panel; format: binding; details: 10 μM
Method: The KINOMEscan was carried out by Ambit (San Diego, USA) according to a previously established protocol. The experiment was based on a competition binding assay that quantitatively measures the ability of a compound to compete with an immobilized, active-site directed ligand. The assay is performed by combining three components: DNA-tagged kinase; immobilized ligand; and a test compound. The ability of the test compound to compete with the immobilized ligand is measured via quantitative PCR of the DNA tag.
For most assays, kinase-tagged T7 phage strains were grown in parallel in 24-well blocks in an Escherichia coli host derived from the BL21 strain. E. coli were grown to log-phase and infected with T7 phage from a frozen stock and incubated with shaking at 32 °C until lysis (90–150 min). The lysates were centrifuged (6,000g) and filtered (0.2 μm) to remove cell debris. The remaining kinases were produced in HEK-293 cells (Sigma Aldrich, catalogue number: 85120602) and subsequently tagged with DNA for quantitative PCR detection. […] The liganded beads were blocked with excess biotin and washed with blocking buffer (SeaBlock (Pierce), 1% bovine serum albumin, 0.05% Tween 20 and 1 mM dithiothreitol) to remove unbound ligand and to reduce non-specific phage binding. […] The kinase concentration in the eluates was measured by quantitative PCR.

5-HT2A (h) = molecular target: T14, 5-HT2A (h) (Homo sapiens, UniProt P28223); assay: Radioligand binding
T14 construct: Cerep (contract screening)
T14 sequence (P28223 whole entry): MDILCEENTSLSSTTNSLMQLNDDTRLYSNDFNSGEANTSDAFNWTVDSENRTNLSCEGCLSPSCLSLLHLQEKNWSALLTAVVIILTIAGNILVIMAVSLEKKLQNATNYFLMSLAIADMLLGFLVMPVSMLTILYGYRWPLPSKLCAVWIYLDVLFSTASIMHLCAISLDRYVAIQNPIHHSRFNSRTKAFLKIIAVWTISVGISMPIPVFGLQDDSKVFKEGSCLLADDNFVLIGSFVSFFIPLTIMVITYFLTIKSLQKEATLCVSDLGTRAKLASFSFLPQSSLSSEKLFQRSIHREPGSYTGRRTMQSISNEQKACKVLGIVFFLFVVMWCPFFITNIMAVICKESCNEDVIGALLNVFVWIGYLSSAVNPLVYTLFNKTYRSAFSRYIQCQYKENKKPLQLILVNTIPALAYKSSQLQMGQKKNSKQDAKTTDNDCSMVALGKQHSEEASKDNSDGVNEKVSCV

[3] = In vitro metabolism in liver microsomes; details: rat liver microsomes, 10 μM
MC4 (h) = molecular target: T15, MC4 (h) (Homo sapiens, UniProt P32245); assay: Radioligand binding
T15 construct: Cerep
T15 sequence (P32245 whole entry): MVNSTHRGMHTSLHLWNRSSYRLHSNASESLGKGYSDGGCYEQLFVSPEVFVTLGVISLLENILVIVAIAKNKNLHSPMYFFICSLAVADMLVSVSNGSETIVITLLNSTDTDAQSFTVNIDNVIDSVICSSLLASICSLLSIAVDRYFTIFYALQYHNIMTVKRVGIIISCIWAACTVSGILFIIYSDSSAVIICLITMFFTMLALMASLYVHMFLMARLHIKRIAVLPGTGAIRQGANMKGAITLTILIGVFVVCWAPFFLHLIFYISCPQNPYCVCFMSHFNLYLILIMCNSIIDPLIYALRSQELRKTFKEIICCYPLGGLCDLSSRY

[4] = plasma, ip, mouse i.p. 20 mg kg^−1
[5] = P. vinckei, 30 mg kg-1 i.p. 1x4 days
[6] = plasma, iv, mouse i.v. 2 mg kg^−1

Row | SMILES | Remaining enzyme activity (CYP1A2) [%] | Inhibition of control specific binding (NK3 (h)) [%] | IC50 (P. falciparum strain D10) [nM] | Inhibition of control specific binding (5-HT1A (h)) [%] | Inhibition of control specific binding (NK2 (h)) [%] | Remaining enzyme activity (CYP2C8) [%] | Inhibition of control specific binding (D1 (h)) [%] | remaining after 60 min of incubation [1] [%] | Inhibition of control specific binding (A2A (h)) [%] | Inhibition of control specific binding (NTS1 (NT1) (h)) [%] | Inhibition of control specific binding (5-HT transporter (h)) [%] | Remaining enzyme activity (CYP2D6) [%] | Inhibition of control specific binding (D2S (h)) [%] | time of peak plasma concentration (Cmax) (PK study) [min] | Inhibition of control specific binding (V1a (h)) [%] | in vitro propagation / cytotoxicity (HepG2 cells) | Inhibition of control specific binding (M2 (h)) [%] | solubility (Solubility in water) [µg/mL] | IC90 (P. falciparum strain Dd2) [nM] | absolute Hill coefficient (P. falciparum strain Dd2) | further results
1 | CCCCN1CCN(C(=N)c2cccc(NC(=O)Nc3ccc(S(=O)(=O)NCc4ccc(S(N)(=O)=O)cc4)cc3)c2)CC1 [SC81458, 4-(3-(3-((4-butylpiperazin-1-yl)(imino)methyl)phenyl)ureido)-N-(4-sulfamoylbenzyl) benzenesulfonamide] | 95 | 6 | 9 ± 4 | 2 | 51 | 95 | 51 | 54 | 5 | 1 | 28 | 107 | 15 | ≤ 30 | -1 | did not affect | 45 | 890 (≈ 1420 µM) | 18 | 2.6±0.3 | CL (PK study; mouse i.p. 20 mg kg^−1): 4,607 ml h^−1 kg^−1; half-life (PK study; plasma, ip, 20 mg/kg, mouse i.p. 20 mg kg^−1, read-out: t1/2 effective): 52 min; half-life (PK study; plasma, ip, 20 mg/kg, mouse i.p. 20 mg kg^−1, read-out: t1/2 terminal): 860 min; AUC(0-inf) (PK study; [4]): 4340 ng·h/mL; Cmax (PK study; [4]): 7380 ng/mL; Tmax (PK study; [4]): 30 min; bioavailability (PK study; plasma, ip, mouse i.p. 20 mg kg^−1, read-out: F, relative bioavailability compared to i.v.): 62%; MRT last (PK study; [4]): 74.4 min; parasitemia in treated mice at day 5 (Plasmodium vinckei; 30 mg kg^−1 per day for 4 days): 3.3%; Outcome (Plasmodium vinckei; [5]): rescrudescence; also recorded: all treated mice died of a recrudescent parasitemia; Outcome: decrease of parasitemia (Plasmodium vinckei; [5]): > 90% and 97%; Inhibition of control specific binding [2]: 73%; Inhibition of control specific binding (VPAC1 (VIP1) (h)): -4%; Inhibition of control specific binding (b2 (h)): 6%; interference with 401 human kinases (401 human kinases): did not interfere; Inhibition of control specific binding (5-HT2A (h)): 17%; remaining after 60 min of incubation [3]: 74%; Inhibition of control specific binding (MC4 (h)): -10%
2 | COC(=O)N1CCN(C(=N)c2cccc(NC(=O)Nc3ccc(S(=O)(=O)NCc4ccc(S(N)(=O)=O)cc4)cc3)c2)CC1 [SC83288, methyl 4-(imino(3-(3-(4-(N-(4-sulfamoylbenzyl)sulfamoyl)phenyl)ureido)phenyl)methyl) piperazine-1-carboxylate] | 97 | 5 | 5 ± 1 | 15 | 20 | 89 | 79 | 96 | 13 | 1 | 38 | 91 | 1 | ≤ 30 | 11 | did not affect | 68 | 940 (≈ 1490 µM) | 8 | 2.6±0.3 | VC (PK study; mouse i.v. 2 mg kg^−1): 0.549 L/kg; half-life (PK study; plasma, ip, 10 mg/kg, mice, i.p. 2.5, 5.0 and 10.0 mg kg^−1, read-out: effective half time t1/2): 29 to 55 min; half-life (PK study; plasma, iv, 2 mg/kg, mouse i.v. 2 mg kg^−1, read-out: t1/2 effective): 12 min; half-life (PK study; plasma, iv, 2 mg/kg, mouse i.v. 2 mg kg^−1, read-out: t1/2 initial): 9 min; half-life (PK study; plasma, iv, 2 mg/kg, mouse i.v. 2 mg kg^−1, read-out: t1/2 terminal): 43 min; AUC(0-inf) (PK study; plasma, ip, mouse i.p. 10 mg kg^−1): 2020 ng·h/mL; AUC(0-inf) (PK study; [6]): 891 ng·h/mL; C0 (PK study; [6]): 3640 ng/mL; Cmax (PK study; [6]): 2560 ng/mL; Tmax (PK study; [6]): 5 min; clearance (PK study; [6]): 37.4 mL/min/kg; MRT last (PK study; [6]): 16.8 min; Outcome (Plasmodium vinckei; P. vinckei, 20 mg kg-1 i.p. 1x4 days): complete clearance, no recrudescence; also recorded: fully cured the infection; Inhibition of control specific binding [2]: 59%; Inhibition of control specific binding (VPAC1 (VIP1) (h)): -5%; Inhibition of control specific binding (b2 (h)): 27%; interference with 401 human kinases (401 human kinases): did not interfere; Inhibition of control specific binding (5-HT2A (h)): 30%; remaining after 60 min of incubation [3]: 91%; Inhibition of control specific binding (MC4 (h)): 4%
